Reference: US20250197351A1, “C4-CARBOXYLIC ACID-S[…] DERIVATIVES AND METHODS OF USING” (priority 2022, published 2025)
Where “and” joins values, the source holds several entries; their conditions need not be identical. Equal values may be shown once.

Experiments:
5-HT2A receptor = 5-HT2A receptor (Homo sapiens, UniProt P28223); assay: [3H]ketanserin competition binding assay (SPA); conditions: 1 nM [3H]ketanserin; control ligands
5-HT1A receptor = target: T1, 5-HT1A receptor (Homo sapiens, UniProt P08908); assay: cAMP-Glo assay of 5-HT1A receptor modulation, CHO-K1/5-HT1A/Ga15 (+5-HT1A) vs CHO-K1/Ga15 (−5-HT1A) cells; assay type: cell-based; conditions: +5-HT1A vs −5-HT1A CHO-K1 cells; 4 μM forskolin; increasing ligand concentration
T1 construct: host or cells: CHO-K1 (co-expressing Ga15)
T1 sequence (P08908 1-422): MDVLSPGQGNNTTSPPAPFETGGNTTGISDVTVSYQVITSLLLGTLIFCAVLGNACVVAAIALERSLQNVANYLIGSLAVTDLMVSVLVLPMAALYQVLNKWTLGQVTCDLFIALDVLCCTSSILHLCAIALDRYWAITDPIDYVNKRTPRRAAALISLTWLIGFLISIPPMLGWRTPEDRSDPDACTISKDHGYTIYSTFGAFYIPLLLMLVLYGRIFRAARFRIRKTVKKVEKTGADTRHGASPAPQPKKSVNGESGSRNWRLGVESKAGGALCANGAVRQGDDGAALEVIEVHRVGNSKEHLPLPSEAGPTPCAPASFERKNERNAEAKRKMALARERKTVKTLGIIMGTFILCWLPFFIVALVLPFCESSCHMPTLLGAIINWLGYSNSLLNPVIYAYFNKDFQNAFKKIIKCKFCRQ

[1] = target: T2, 5-HT2A receptor (5-HT2AR) (Mus musculus, UniProt P35363); assay: Drug-induced Head Twitch Response (HTR); assay type: in vivo; conditions: 1 mg/kg i.p., 15-to-30-minute window post-drug, relative to vehicle
T2 construct: host or cells: C57BL/6 mice, in vivo (neuronal receptor)

[2] = Mouse pharmacokinetic (PK) study, parent compound and psilocin metabolite in plasma; assay type: in vivo; conditions: for Plasma concentration of C(XX): LLOQ 0.25 ng/mL; for Plasma concentration: parent C(XX), BLQ = below 0.25 ng/mL; for AUC0-tlast/Dose of C(XX) / Cmax/Dose of C(XX) / AUC0-inf/Dose of C(XX): plasma
Source text: Briefly, the procedure was as follows. […] 19, 2022.

[3] = 3 mg/kg oral C(XX), individual mice, 3 mg/kg
[4] = 10 mg/kg oral C(XX), individual mice, 10 mg/kg
[5] = mouse, prodrug 1 mg/kg i.v., 8 h, individual animals, BLQ = below 0.2 ng/mL
[6] = mouse, prodrug 1 mg/kg p.o. (psilocybin: 1.56 mg/kg), 8 h, individual animals, BLQ = below 0.2 ng/mL
[7] = mouse, prodrug 1 mg/kg p.o. (psilocybin: 1.56 mg/kg), 24 h, individual animals, BLQ = below 0.2 ng/mL
[8] = mouse, prodrug 3 mg/kg p.o., 24 h, individual animals, BLQ = below 0.2 ng/mL
[9] = mouse, prodrug 10 mg/kg p.o., 24 h, individual animals, BLQ = below 0.2 ng/mL

T2 sequence (P35363 whole entry): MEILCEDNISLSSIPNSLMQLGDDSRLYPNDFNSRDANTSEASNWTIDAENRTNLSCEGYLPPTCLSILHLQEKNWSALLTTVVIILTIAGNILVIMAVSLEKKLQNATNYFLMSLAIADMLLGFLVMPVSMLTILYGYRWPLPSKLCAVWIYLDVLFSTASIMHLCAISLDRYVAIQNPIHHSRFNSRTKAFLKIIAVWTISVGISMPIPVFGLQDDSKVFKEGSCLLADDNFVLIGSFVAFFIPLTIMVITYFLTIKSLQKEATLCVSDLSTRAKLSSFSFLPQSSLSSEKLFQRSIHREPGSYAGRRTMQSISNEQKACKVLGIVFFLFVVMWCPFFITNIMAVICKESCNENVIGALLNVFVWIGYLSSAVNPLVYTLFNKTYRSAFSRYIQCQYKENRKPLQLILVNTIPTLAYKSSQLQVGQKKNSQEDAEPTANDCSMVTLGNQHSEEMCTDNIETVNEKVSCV
5-HT2A receptor, sequence (P28223 whole entry): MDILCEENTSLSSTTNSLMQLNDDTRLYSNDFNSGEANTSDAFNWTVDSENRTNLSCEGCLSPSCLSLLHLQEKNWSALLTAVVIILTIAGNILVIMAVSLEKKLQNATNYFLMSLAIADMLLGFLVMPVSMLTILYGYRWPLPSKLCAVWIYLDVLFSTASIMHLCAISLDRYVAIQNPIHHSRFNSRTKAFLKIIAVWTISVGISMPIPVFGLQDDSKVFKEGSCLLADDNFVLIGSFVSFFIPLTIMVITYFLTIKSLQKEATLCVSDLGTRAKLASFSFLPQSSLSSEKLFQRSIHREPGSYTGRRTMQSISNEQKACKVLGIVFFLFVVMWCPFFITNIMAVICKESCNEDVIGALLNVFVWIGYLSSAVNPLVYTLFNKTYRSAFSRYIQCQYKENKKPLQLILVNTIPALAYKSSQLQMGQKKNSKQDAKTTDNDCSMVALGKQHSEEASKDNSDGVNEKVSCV

SMILES: CN(C)CCc1c[nH]c2cccc(O)c12 [psilocin, reference compound]
- Binding at 5-HT2A receptor in competition assay (5-HT2A receptor): binding
- 5-HT1A receptor modulation (reduction of forskolin-induced cAMP) (5-HT1A receptor): reduction in cAMP levels

SMILES: CN(C)CCc1c[nH]c2cccc(OC(=O)c3cccc4c3OCCO4)c12 [C(XX)]
- Head Twitch Response (HTR) incidence [1]: Elevated incidences of HTR
- 5-HT1A receptor modulation (reduction of forskolin-induced cAMP) (5-HT1A receptor): significant receptor modulation
- Plasma concentration of psilocin ([2]; 1 mg/kg i.v. C(XX), 8 h, individual mice, LLOQ 0.5 ng/mL): BLQ
- Plasma concentration of psilocin ([2]; 1 mg/kg oral C(XX), 24 h, individual mice, LLOQ 0.5 ng/mL): BLQ
- Plasma concentration of C(XX) ([2]; 3 mg/kg oral C(XX), 0.25 h, individual mice): 1.72 ng/mL
- Plasma concentration of C(XX) ([2]; 3 mg/kg oral C(XX), 0.5 h, individual mice): 1.13 ng/mL
- Plasma concentration of C(XX) ([2]; 3 mg/kg oral C(XX), 4 h, individual mice): No Peak (2×) and BLQ
- Plasma concentration of C(XX) ([2]; 3 mg/kg oral C(XX), 6 h, individual mice): No Peak and BLQ (2×)
- Plasma concentration of C(XX) ([2]; 3 mg/kg oral C(XX), 8 h, individual mice): No Peak and BLQ (2×)
- Plasma concentration of C(XX) ([2]; 3 mg/kg oral C(XX), 24 h, individual mice): No Peak
- Plasma concentration of psilocin ([2]; 3 mg/kg oral C(XX), 24 h, individual mice, LLOQ 0.5 ng/mL): BLQ
- F of C(XX) ([2]; 3 mg/kg oral C(XX), individual mice): 0.816% and 1.08% and 0.962%
- F of C(XX) ([2]; 3 mg/kg oral C(XX), mean): 0.953 ± 0.132%
- Plasma concentration of C(XX) ([2]; 10 mg/kg oral C(XX), 0.25 h, individual mice): 10.3 ng/mL
- Plasma concentration of C(XX) ([2]; 10 mg/kg oral C(XX), 2 h, individual mice): 1.08 ng/mL
- Plasma concentration of C(XX) ([2]; 10 mg/kg oral C(XX), 4 h, individual mice): BLQ
- Plasma concentration of C(XX) ([2]; 10 mg/kg oral C(XX), 6 h, individual mice): BLQ
- Plasma concentration of C(XX) ([2]; 10 mg/kg oral C(XX), 8 h, individual mice): BLQ
- Plasma concentration of C(XX) ([2]; 10 mg/kg oral C(XX), 24 h, individual mice): No Peak
- Plasma concentration of psilocin ([2]; 10 mg/kg oral C(XX), 24 h, individual mice, LLOQ 0.5 ng/mL): BLQ
- Plasma concentration ([2]; 1 mg/kg i.v., 2 h, each animal, 1 mg/kg): 1.14 ng/mL
- Plasma concentration ([2]; 1 mg/kg i.v., 6 h, each animal): BLQ
- Plasma concentration ([2]; 1 mg/kg i.v., 8 h, each animal, 1 mg/kg): BLQ and No (2×)
- Plasma concentration ([2]; 1 mg/kg p.o., 2 h, each animal): BLQ
- Plasma concentration ([2]; 1 mg/kg p.o., 4 h, each animal): BLQ
- Plasma concentration ([2]; 1 mg/kg p.o., 6 h, each animal, 1 mg/kg): No Peak (2×) and BLQ
- Plasma concentration ([2]; 1 mg/kg p.o., 8 h, each animal, 1 mg/kg): No Peak (2×) and BLQ
- Plasma concentration ([2]; 1 mg/kg p.o., 24 h, each animal): No Peak
- AUC0-tlast/Dose ([2]; parent compound in plasma, 1 mg/kg i.v., each animal, 1 mg/kg): 48.0 kg·ng·h/mL/mg
- AUC0-tlast/Dose of C(XX) ([2]; 1 mg/kg i.v. C(XX), mean): 52.8 ± 8.30 kg·ng·h/mL/mg
- Cmax/Dose of C(XX) ([2]; 1 mg/kg p.o. C(XX), mean): 0.620 ± 0.0996 kg·ng/mL/mg
- AUC0-inf/Dose of C(XX) [2, 3]: 0.433 kg·ng·h/mL/mg and 0.572 kg·ng·h/mL/mg and 0.510 kg·ng·h/mL/mg
- AUC0-tlast/Dose of C(XX) [2, 3]: 0.406 kg·ng·h/mL/mg and 0.494 kg·ng·h/mL/mg and 0.474 kg·ng·h/mL/mg
- Cmax/Dose of C(XX) [2, 3]: 0.497 kg·ng/mL/mg and 0.573 kg·ng/mL/mg and 0.643 kg·ng/mL/mg
- AUC0-inf/Dose of C(XX) ([2]; 3 mg/kg oral C(XX), mean): 0.505 ± 0.0700 kg·ng·h/mL/mg
- AUC0-tlast/Dose of C(XX) ([2]; 3 mg/kg oral C(XX), mean): 0.458 ± 0.0457 kg·ng·h/mL/mg
- Cmax/Dose of C(XX) ([2]; 3 mg/kg oral C(XX), mean): 0.571 ± 0.0734 kg·ng/mL/mg
- AUC0-tlast/Dose of C(XX) [2, 4]: 0.565 kg·ng·h/mL/mg and 0.499 kg·ng·h/mL/mg and 0.916 kg·ng·h/mL/mg
- Cmax/Dose of C(XX) [2, 4]: 0.299 kg·ng/mL/mg and 0.912 kg·ng/mL/mg and 1.03 kg·ng/mL/mg
- AUC0-tlast/Dose of C(XX) ([2]; 10 mg/kg oral C(XX), mean): 0.660 ± 0.224 kg·ng·h/mL/mg
- Cmax/Dose of C(XX) ([2]; 10 mg/kg oral C(XX), mean): 0.747 ± 0.392 kg·ng/mL/mg

SMILES: COc1ccc(C(=O)Oc2cccc3[nH]cc(CCN(C)C)c23)cc1 [C(V)]
- Head Twitch Response (HTR) incidence [1]: Elevated incidences of HTR
- 5-HT1A receptor modulation (reduction of forskolin-induced cAMP) (5-HT1A receptor): mild receptor modulation at higher ligand concentrations
- Detection of parent compound in plasma after i.v. administration ([2]; mouse, 1 mg/kg i.v.): only detectable in i.v. administered animals
- Plasma concentration of parent compound ([2]; mouse, 1 mg/kg i.v., 0.25 h, individual animals, BLQ = below 0.5 ng/mL (C(V)), 1 mg/kg): BLQ
- Plasma concentration of parent compound ([2]; mouse, 1 mg/kg i.v., 0.5 h, individual animals, BLQ = below 0.5 ng/mL (C(V)), 1 mg/kg): BLQ and No Peak (2×)
- Plasma concentration of parent compound ([2]; mouse, 1 mg/kg i.v., 1 h, individual animals): No Peak
- Plasma concentration of parent compound ([2]; mouse, 1 mg/kg i.v., 2 h, individual animals): No Peak
- Plasma concentration of parent compound ([2]; mouse, 1 mg/kg i.v., 4 h, individual animals): No Peak
- Plasma concentration of parent compound ([2]; mouse, 1 mg/kg i.v., 6 h, individual animals): No Peak
- Plasma concentration of parent compound ([2]; mouse, 1 mg/kg i.v., 8 h, individual animals): No Peak
- Detection of parent compound in plasma after oral administration ([2]; mouse, orally administered, any dose (1, 3, 10 mg/kg)): not detectable
- Plasma concentration of psilocin [2, 5]: BLQ
- Plasma concentration of psilocin [2, 6]: BLQ
- Plasma concentration of psilocin [2, 7]: No Peak and BLQ (2×)
- Plasma concentration of psilocin [2, 8]: No Peak and BLQ (2×)
- Plasma concentration of psilocin [2, 9]: BLQ (2×) and No Peak

SMILES: N[C@@H](Cc1c[nH]c2ccccc12)C(=O)O [tryptophan, reference compound]
- Binding at 5-HT2A receptor in competition assay (5-HT2A receptor): no binding
- 5-HT1A receptor modulation (reduction of forskolin-induced cAMP) (5-HT1A receptor): no reduction in cellular cAMP levels

SMILES: CN(C)CCc1c[nH]c2cccc(OC(=O)c3c(F)c(F)c(F)c(F)c3F)c12 [C(VI)]
- Head Twitch Response (HTR) incidence [1]: Elevated incidences of HTR
- 5-HT1A receptor modulation (reduction of forskolin-induced cAMP) (5-HT1A receptor): no receptor modulation at higher ligand concentrations
- Detection of parent compound in plasma ([2]; mouse, any animals at any dose (i.v. and oral)): not detectable in any animals at any dose
- Plasma concentration of psilocin [2, 5]: BLQ
- Plasma concentration of psilocin [2, 6]: BLQ
- Plasma concentration of psilocin [2, 7]: BLQ and No Peak (2×)
- Plasma concentration of psilocin [2, 8]: BLQ (2×) and No Peak
- Plasma concentration of psilocin [2, 9]: BLQ
